Laboratory results from patent US20110244589A1, “IN-VIVO PLATELET FUNCTION TEST BY ONLINE BLEEDING VOLUME MEASUREMENT” (priority 2009, published 2011).

Legend:
platelet function [1] = assay: bleeding volume test (in-vivo, blotter paper blotch area); design: species or system patient; details: after taking an aspirin, versus before
Source text: Bleeding volume is the volume of blood lost during a bleeding time test. Bleeding time is a total length of time between the moment a standardized tiny superficial incision is made in the skin of a patient and the moment the bleeding stops. […] The blotter paper 14 absorbs the blood 16 oozing out of the incision 18 until the patient 10 stops bleeding. One or more blotter papers 14 may be necessary to absorb all of the blood 16.
The in-vivo bleeding volume test results of the patient 10 is indicative of a patient's excessive bleeding tendencies, platelet function and platelet number.
Referring now to FIG. 1, a medical professional conducts the following procedure on the patient 10 being treated. The conditions for consistent blood flow and clotting may be set up. For example, the incision area may be wiped with alcohol which is allowed to completely dry. The patient may either sit in a chair with the forearm in a comfortable stable position or reclining with the forearm at heart level. A blood pressure (e.g., sphygmomanometer) cuff 26 may be placed on an upper arm 22 of the patient 10. By way of example and not limitation, the blood pressure cuff 26 may be inflated to about 40 mm Hg to regulate a constant venous blood pressure in the forearm 24 of the patient 10. […] A round disc blotter paper 14 typically used for determining bleeding time may be placed at the edge of the incision 18. […]

platelet function [2] = details: background statement on the bleeding time test; cited from earlier work
platelet function [3] = assay: bleeding time test (in-vivo); design: species or system patient; details: after taking an aspirin, versus before
Source text: The bleeding time of a patient, which is the length of time blood continues to flow after the skin of a patient has been punctured or cut, has been used to identify patients having abnormal bleeding tendencies or platelet dysfunction or low number of platelets. The bleeding time test is an in-vivo test which involves making a standardized incision on the skin then applying a round disc of standardized blotter paper to the enlarging blood droplet adjacent to the incision for precisely thirty (30) seconds, then rotating the blotter paper and applying a fresh edge of the disc to the bleeding incision, and repeating this process until bleeding has stopped. The sequential blotches of blood on the blotter paper should not intersect. The total number of dried blotches of blood on the blotter paper divided by the number two (2) gives the duration of bleeding in minutes. […] The conditions for consistent blood flow and clotting may be set up. For example, the incision area may be wiped with alcohol which is allowed to completely dry. […] To calculate the total bleeding time, the number of blotches 28 may be counted and divided by two to arrive at the bleeding time to the nearest thirty (30) second interval. Alternatively, the bleeding time may be calculated with a stopwatch.

Question: Which increases bleeding volume (platelet function [1]) does the source give for `CC(=O)Oc1ccccc1C(=O)O` [aspirin] here?
Answer: 400%

Question: What about the “difference in mean bleeding time of persons who take aspirin and those that take no medication” value (platelet function [2]) of the same molecule?
Answer: ≤ 2 standard deviations

Question: And the “increase the bleeding time” value (platelet function [3])?
Answer: 72%
